Consider 25 compounds from patent publication US9315520B2, “2-amino-6-methyl-4,4a,5,6-tetrahydropyrano[3,4-d][1,3]thiazin-8a(8H)-yl-1,3-thiazol-4-yl amides” (Pfizer Inc., priority 2014, dated 2016).

By IC50 is commonly meant the concentration needed to halve the response being measured.

This test has as its target BACE1 (Homo sapiens (Human), UniProt P56817). Nature of the test: BACE1 Cell-Free Assay (fluorescence polarization). The class given is biochemical. Particulars: geometric mean of 2-4 determinations unless otherwise indicated (b: ≧5; c: single determination); read-out: BACE1 Cell-free Assay IC50.

Counter-ions that a name gives are not always drawn.

Sequence of BACE1 (P56817 46-457): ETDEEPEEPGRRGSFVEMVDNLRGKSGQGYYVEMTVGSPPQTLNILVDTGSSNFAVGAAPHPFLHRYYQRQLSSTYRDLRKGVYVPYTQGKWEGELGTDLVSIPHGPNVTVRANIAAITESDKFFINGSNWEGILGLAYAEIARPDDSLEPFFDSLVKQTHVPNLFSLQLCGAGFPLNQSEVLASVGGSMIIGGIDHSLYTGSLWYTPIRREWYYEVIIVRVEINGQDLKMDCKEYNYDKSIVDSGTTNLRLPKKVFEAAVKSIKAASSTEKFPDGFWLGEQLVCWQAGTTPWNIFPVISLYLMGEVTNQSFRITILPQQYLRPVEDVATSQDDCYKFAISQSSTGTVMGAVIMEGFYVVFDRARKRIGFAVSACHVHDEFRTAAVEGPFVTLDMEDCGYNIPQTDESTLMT

For `C[C@H]1C[C@H]2CSC(N)=N[C@@]2(c2nc(NC(=O)c3ncnn3C)cs2)CO1` [Example 74, N-{2-[(4aR,6S,8aR)-2-amino-6-methyl-4,4a,5,6-tetrahydropyrano[3,4-d][1,3]thiazin-8a(8H)-yl]-1,3-thiazol-4-yl}-1-methyl-1H-1,2,4-triazole-5-carboxamide, trifluoroacetate salt], the 50% inhibitory concentration (IC50) was found to be 4560 nM.
Then `C[C@H]1C[C@H]2CSC(N)=N[C@@]2(c2nc(NC(=O)c3cn(C)cn3)cs2)CO1` [Example 75, N-{2-[(4aR,6S,8aR)-2-amino-6-methyl-4,4a,5,6-tetrahydropyrano[3,4-d][1,3]thiazin-8a(8H)-yl]-1,3-thiazol-4-yl}-1-methyl-1H-imidazole-4-carboxamide, trifluoroacetate salt], with 18200 nM.
Then `C[C@H]1C[C@H]2CSC(N)=N[C@@]2(c2nc(NC(=O)c3cn(C)nn3)cs2)CO1` [Example 76, N-{2-[(4aR,6S,8aR)-2-amino-6-methyl-4,4a,5,6-tetrahydropyrano[3,4-d][1,3]thiazin-8a(8H)-yl]-1,3-thiazol-4-yl}-1-methyl-1H-1,2,3-triazole-4-carboxamide, trifluoroacetate salt], with 28100 nM; and `C[C@H]1C[C@H]2CSC(N)=N[C@@]2(c2nc(NC(=O)c3ccon3)cs2)CO1` [Example 77, N-{2-[(4aR,6S,8aR)-2-amino-6-methyl-4,4a,5,6-tetrahydropyrano[3,4-d][1,3]thiazin-8a(8H)-yl]-1,3-thiazol-4-yl}-1,2-oxazole-3-carboxamide, trifluoroacetate salt], with 777 nM.
With `C[C@H]1C[C@H]2CSC(N)=N[C@@]2(c2nc(NC(=O)C3CC(F)(F)C3)cs2)CO1` [Example 78, N-{2-[(4aR,6S,8aR)-2-amino-6-methyl-4,4a,5,6-tetrahydropyrano[3,4-d][1,3]thiazin-8a(8H)-yl]-1,3-thiazol-4-yl}-3,3-difluorocyclobutanecarboxamide, trifluoroacetate salt], the 50% inhibitory concentration (IC50) amounted to 1490 nM.
Then `C[C@H]1C[C@H]2CSC(N)=N[C@@]2(c2nc(NC(=O)c3ncccn3)cs2)CO1` [Example 79, N-{2-[(4aR,6S,8aR)-2-amino-6-methyl-4,4a,5,6-tetrahydropyrano[3,4-d][1,3]thiazin-8a(8H)-yl]-1,3-thiazol-4-yl}pyrimidine-2-carboxamide, trifluoroacetate salt], with 1080 nM.
The figure for `C[C@H]1C[C@H]2CSC(N)=N[C@@]2(c2nc(NC(=O)c3cc(Cl)n(C)n3)cs2)CO1` [Example 81, N-{2-[(4aR,6S,8aR)-2-amino-6-methyl-4,4a,5,6-tetrahydropyrano[3,4-d][1,3]thiazin-8a(8H)-yl]-1,3-thiazol-4-yl}-5-chloro-1-methyl-1H-pyrazole-3-carboxamide] is 3380 nM; for `C[C@H]1C[C@H]2CSC(N)=N[C@@]2(c2nc(NC(=O)c3cnc(C4CC4)cn3)cs2)CO1` [Example 82, N-{2-[(4aR,6S,8aR)-2-amino-6-methyl-4,4a,5,6-tetrahydropyrano[3,4-d][1,3]thiazin-8a(8H)-yl]-1,3-thiazol-4-yl}-5-cyclopropylpyrazine-2-carboxamide, hydrochloride salt] it is 1080 nM.
Then `C[C@H]1C[C@H]2CSC(N)=N[C@@]2(c2nc(NC(=O)c3cnn(C(F)F)c3)cs2)CO1` [Example 83, N-{2-[(4aR,6S,8aR)-2-amino-6-methyl-4,4a,5,6-tetrahydropyrano[3,4-d][1,3]thiazin-8a(8H)-yl]-1,3-thiazol-4-yl}-1-(difluoromethyl)-1H-pyrazole-4-carboxamide], with 671 nM; and `C[C@H]1C[C@H]2CSC(N)=N[C@@]2(c2nc(NC(=O)c3ccnn3C3CC3)cs2)CO1` [Example 85, N-{2-[(4aR,6S,8aR)-2-amino-6-methyl-4,4a,5,6-tetrahydropyrano[3,4-d][1,3]thiazin-8a(8H)-yl]-1,3-thiazol-4-yl}-1-cyclopropyl-1H-pyrazole-5-carboxamide, formate salt], with 4240 nM.
In the case of `CC(C)c1nc(C(=O)Nc2csc([C@]34CO[C@@H](C)C[C@H]3CSC(N)=N4)n2)co1` [Example 86, N-{2-[(4aR,6S,8aR)-2-amino-6-methyl-4,4a,5,6-tetrahydropyrano[3,4-d][1,3]thiazin-8a(8H)-yl]-1,3-thiazol-4-yl}-2-(propan-2-yl)-1,3-oxazole-4-carboxamide], the IC50 was 16200 nM.
The figure for `C[C@H]1C[C@H]2CSC(N)=N[C@@]2(c2nc(NC(=O)c3ccn(CC(F)F)n3)cs2)CO1` [Example 87, N-{2-[(4aR,6S,8aR)-2-amino-6-methyl-4,4a,5,6-tetrahydropyrano[3,4-d][1,3]thiazin-8a(8H)-yl]-1,3-thiazol-4-yl}-1-(2,2-difluoroethyl)-1H-pyrazole-3-carboxamide] is 398 nM; for `COCCn1ccc(C(=O)Nc2csc([C@]34CO[C@@H](C)C[C@H]3CSC(N)=N4)n2)n1` [Example 88, N-{2-[(4aR,6S,8aR)-2-amino-6-methyl-4,4a,5,6-tetrahydropyrano[3,4-d][1,3]thiazin-8a(8H)-yl]-1,3-thiazol-4-yl}-1-(2-methoxyethyl)-1H-pyrazole-3-carboxamide] it is 418 nM; for `C#CCn1ccc(C(=O)Nc2csc([C@]34CO[C@@H](C)C[C@H]3CSC(N)=N4)n2)n1` [Example 89, N-{2-[(4aR,6S,8aR)-2-amino-6-methyl-4,4a,5,6-tetrahydropyrano[3,4-d][1,3]thiazin-8a(8H)-yl]-1,3-thiazol-4-yl}-1-(prop-2-yn-1-yl)-1H-pyrazole-3-carboxamide] it is 17 nM.
The figure for `COCc1nc(C(=O)Nc2csc([C@]34CO[C@@H](C)C[C@H]3CSC(N)=N4)n2)co1` [Example 90, N-{2-[(4aR,6S,8aR)-2-amino-6-methyl-4,4a,5,6-tetrahydropyrano[3,4-d][1,3]thiazin-8a(8H)-yl]-1,3-thiazol-4-yl}-2-(methoxymethyl)-1,3-oxazole-4-carboxamide] is 175 nM; for `C[C@H]1C[C@H]2CSC(N)=N[C@@]2(c2nc(NC(=O)c3coc(CC(F)(F)F)n3)cs2)CO1` [Example 91, N-{2-[(4aR,6S,8aR)-2-amino-6-methyl-4,4a,5,6-tetrahydropyrano[3,4-d][1,3]thiazin-8a(8H)-yl]-1,3-thiazol-4-yl}-2-(2,2,2-trifluoroethyl)-1,3-oxazole-4-carboxamide] it is 215 nM.
The figure for `C[C@H]1C[C@H]2CSC(N)=N[C@@]2(c2nc(NC(=O)C3CCC3)cs2)CO1` [Example 93, N-{2-[(4aR,6S,8aR)-2-amino-6-methyl-4,4a,5,6-tetrahydropyrano[3,4-d][1,3]thiazin-8a(8H)-yl]-1,3-thiazol-4-yl}cyclobutanecarboxamide] is 376 nM; for `CC#CCOc1ccc(C(=O)Nc2csc([C@]34CO[C@@H](C)C[C@H]3CSC(N)=N4)n2)nc1` [Example 94, N-{2-[(4aR,6S,8aR)-2-amino-6-methyl-4,4a,5,6-tetrahydropyrano[3,4-d][1,3]thiazin-8a(8H)-yl]-1,3-thiazol-4-yl}-5-(but-2-yn-1-yloxy)pyridine-2-carboxamide] it is 18 nM.
In the case of `C[C@H]1C[C@H]2CSC(N)=N[C@@]2(c2nc(NC(=O)c3nc(C(F)F)co3)cs2)CO1` [Example 95, N-{2-[(4aR,6S,8aR)-2-amino-6-methyl-4,4a,5,6-tetrahydropyrano[3,4-d][1,3]thiazin-8a(8H)-yl]-1,3-thiazol-4-yl}-4-(difluoromethyl)-1,3-oxazole-2-carboxamide], the half-inhibitory concentration (IC50) was found to be 75 nM.
For `Cc1cn(C(F)F)nc1C(=O)Nc1csc([C@]23CO[C@@H](C)C[C@H]2CSC(N)=N3)n1` [Example 96, N-{2-[(4aR,6S,8aR)-2-amino-6-methyl-4,4a,5,6-tetrahydropyrano[3,4-d][1,3]thiazin-8a(8H)-yl]-1,3-thiazol-4-yl}-1-(difluoromethyl)-4-methyl-1H-pyrazole-3-carboxamide], the concentration for half-maximal inhibition (IC50) was determined as 2 nM.
With `C[C@H]1C[C@H]2CSC(N)=N[C@@]2(c2nc(NC(=O)c3ncc(OC(F)F)cn3)cs2)CO1` [Example 97, N-{2-[(4aR,6S,8aR)-2-amino-6-methyl-4,4a,5,6-tetrahydropyrano[3,4-d][1,3]thiazin-8a(8H)-yl]-1,3-thiazol-4-yl}-5-(difluoromethoxy)pyrimidine-2-carboxamide], the IC50 came to 177 nM.
Consider `Cc1nc(OC(F)F)cnc1C(=O)Nc1csc([C@]23CO[C@@H](C)C[C@H]2CSC(N)=N3)n1` [Example 98, N-{2-[(4aR,6S,8aR)-2-amino-6-methyl-4,4a,5,6-tetrahydropyrano[3,4-d][1,3]thiazin-8a(8H)-yl]-1,3-thiazol-4-yl}-5-(difluoromethoxy)-3-methylpyrazine-2-carboxamide], for which the concentration for half-maximal inhibition (IC50) turned out to be 33 nM.
Then `C[C@H]1C[C@H]2CSC(N)=N[C@@]2(c2nc(NC(=O)c3ncc(OC(F)F)cc3Cl)cs2)CO1` [Example 99, N-{2-[(4aR,6S,8aR)-2-amino-6-methyl-4,4a,5,6-tetrahydropyrano[3,4-d][1,3]thiazin-8a(8H)-yl]-1,3-thiazol-4-yl}-3-chloro-5-(difluoromethoxy)pyridine-2-carboxamide], with 25 nM; and `COCC(F)(F)c1cnc(C(=O)Nc2csc([C@]34CO[C@@H](C)C[C@H]3CSC(N)=N4)n2)cn1` [Example 100, N-{2-[(4aR,6S,8aR)-2-amino-6-methyl-4,4a,5,6-tetrahydropyrano[3,4-d][1,3]thiazin-8a(8H)-yl]-1,3-thiazol-4-yl}-5-(1,1-difluoro-2-methoxyethyl)pyrazine-2-carboxamide], with 220 nM.
With `C[C@H]1C[C@H]2CSC(N)=N[C@@]2(c2nc(NC(=O)c3ccc(OCC#N)cn3)cs2)CO1` [Example 101, N-{2-[(4aR,6S,8aR)-2-amino-6-methyl-4,4a,5,6-tetrahydropyrano[3,4-d][1,3]thiazin-8a(8H)-yl]-1,3-thiazol-4-yl}-5-(cyanomethoxy)pyridine-2-carboxamide], the 50% inhibitory concentration (IC50) worked out at 447 nM.
